{"source": "ChEMBL document CHEMBL5338734", "about": "“Anticancer Activity of Region B Capsaicin Analogs” (J Med Chem, 2023)", "key": {"[1]": {"tested_on": "B16-F10", "experiment": "Antiproliferative activity against B16-F10 cells assessed as inhibition of cell growth measured after 24 hrs by MTT assay", "type": "functional, cell-based", "settings": "Mus musculus, B16-F10, 24 h"}, "[2]": {"tested_on": "NCI-H1299", "experiment": "Antiproliferative activity against human NCI-H1299 cells assessed as inhibition of cell growth measured after 24 hrs by MTT assay", "type": "functional, cell-based", "settings": "NCI-H1299, 24 h"}, "[3]": {"tested_on": "CAL-27", "experiment": "Antitumor activity against human CAL-27 cells xenografted in mouse assessed as fold decrease in tumor size at 12 mg/kg, ip measured for 4 weeks by hematoxylin and eosin staining based analysis relative to control", "type": "functional"}, "[4]": {"tested_on": "CAL-27", "experiment": "Antitumor activity against human CAL-27 cells xenografted in mouse assessed as mean tumor volume at 12 mg/kg, ip measured for 4 weeks by hematoxylin and eosin staining based analysis (reference value: 541 […])", "type": "functional"}, "[5]": {"tested_on": "DU-145", "experiment": "Antiproliferative activity against human DU-145 cells assessed as inhibition of cell growth", "type": "functional, cell-based"}, "[6]": {"tested_on": "SCC-4", "experiment": "Antiproliferative activity against human SCC-4 cells assessed as inhibition of cell growth incubated for 24 hrs by MTS assay", "type": "functional, cell-based", "settings": "SCC-4, 24 h"}, "[7]": {"tested_on": "HSC-3", "experiment": "Antiproliferative activity against human HSC-3 cells assessed as inhibition of cell growth incubated for 24 hrs by MTS assay", "type": "functional, cell-based", "settings": "HSC-3, 24 h"}, "[8]": {"tested_on": "CAL-27", "experiment": "Antiproliferative activity against human CAL-27 cells assessed as inhibition of cell growth incubated for 24 hrs by MTS assay", "type": "functional, cell-based", "settings": "CAL-27, 24 h"}, "[9]": {"experiment": "Cytotoxicity against human OKF6/TERT-2 cells assessed as inhibition of cell growth at >7.5 uM incubated for 24 hrs by MTS assay", "type": "toxicity, cell-based", "settings": "read-out: Activity"}, "[10]": {"tested_on": "SCC-9", "experiment": "Antiproliferative activity against human SCC-9 cells assessed as inhibition of cell growth incubated for 24 hrs by MTS assay", "type": "functional, cell-based", "settings": "SCC-9, 24 h"}, "[11]": {"tested_on": "Jurkat", "experiment": "Induction of apoptosis in human Jurkat cells assessed as increase in apoptotic cells by propidium iodide staining based flow cytometry", "type": "functional, cell-based"}, "[12]": {"tested_on": "MCF7", "experiment": "Antiproliferative activity against human MCF7 cells assessed as inhibition of cell growth incubated for 24 hrs by MTT assay", "type": "functional, cell-based", "settings": "MCF7, 24 h"}, "[13]": {"tested_on": "SK-MEL-28", "experiment": "Antiproliferative activity against human SK-MEL-28 cells assessed as inhibition of cell growth measured after 24 hrs by MTT assay", "type": "functional, cell-based", "settings": "SK-MEL-28, 24 h"}, "[14]": {"experiment": "Antiproliferative activity against human SK-MEL-85 cells assessed as inhibition of cell growth incubated for 24 hrs by MTT assay", "type": "functional, cell-based", "settings": "SK-MEL-85, 24 h"}, "[15]": {"tested_on": "SBcl2", "experiment": "Antiproliferative activity against human SBcl2 cells assessed as inhibition of cell growth incubated for 24 hrs by MTT assay", "type": "functional, cell-based", "settings": "SBcl2, 24 h"}, "[16]": {"tested_on": "SK-MEL-28", "experiment": "Antiproliferative activity against human SK-MEL-28 cells assessed as inhibition of cell growth incubated for 24 hrs by MTT assay", "type": "functional, cell-based", "settings": "SK-MEL-28, 24 h"}, "[17]": {"tested_on": "CAL-27", "experiment": "Antiproliferative activity against human CAL-27 cells assessed as reduction of cell growth at 500 uM incubated for 24 hrs by MTS assay", "type": "functional", "set-up": "scale not given: the % may be the effect or the level left"}, "[18]": {"tested_on": "CAL-27", "experiment": "Antiproliferative activity against human CAL-27 cells assessed as reduction of cell growth at 500 uM incubated for 24 hrs in presence of cisplatin by MTS assay", "type": "functional", "set-up": "scale not given: the % may be the effect or the level left"}, "[19]": {"tested_on": "NCI-H460", "experiment": "Antiproliferative activity against human NCI-H460 cells assessed as inhibition of cell growth incubated for 24 hrs by MTS assay", "type": "functional, cell-based", "settings": "NCI-H460, 24 h"}, "[20]": {"tested_on": "MDA-MB-231", "experiment": "Antiproliferative activity against human MDA-MB-231 cells assessed as inhibition of cell growth incubated for 24 hrs by MTS assay", "type": "functional, cell-based", "settings": "MDA-MB-231, 24 h"}, "[21]": {"tested_on": "CAL-27", "experiment": "Antiproliferative activity against human CAL-27 cells assessed as reduction of cell growth at 500 uM incubated for 24 hrs in presence of gefitinib by MTS assay", "type": "functional", "set-up": "scale not given: the % may be the effect or the level left"}, "[22]": {"tested_on": "PC-3", "experiment": "Antiproliferative activity against human PC-3 cells assessed as inhibition of cell growth incubated for 24 hrs by MTS assay", "type": "functional, cell-based", "settings": "PC-3, 24 h"}, "[23]": {"tested_on": "HeLa", "experiment": "Antiproliferative activity against human HeLa cells assessed as inhibition of cell growth incubated for 24 hrs by MTS assay", "type": "functional, cell-based"}, "[24]": {"tested_on": "BT-474", "experiment": "Antiproliferative activity against human BT-474 cells assessed as inhibition of cell growth by MTT assay", "type": "functional, cell-based"}, "[25]": {"tested_on": "MCF7", "experiment": "Antiproliferative activity against human MCF7 cells assessed as inhibition of cell growth by MTT assay", "type": "functional, cell-based"}, "[26]": {"tested_on": "MDA-MB-231", "experiment": "Antiproliferative activity against human MDA-MB-231 cells assessed as inhibition of cell growth by MTT assay", "type": "functional, cell-based"}, "[27]": {"tested_on": "CAL-27", "experiment": "Antiproliferative activity against human CAL-27 cells assessed as reduction of cell growth at 100 nM incubated for 24 hrs by MTS assay", "type": "functional", "set-up": "scale not given: the % may be the effect or the level left"}, "[28]": {"tested_on": "5637", "experiment": "Antiproliferative activity against human 5637 cells assessed as inhibition of cell growth measured after 24 hrs by MTT assay", "type": "functional, cell-based", "settings": "Homo sapiens, 5637, 24 h"}, "[29]": {"tested_on": "T-24", "experiment": "Antiproliferative activity against human T24 cells assessed as inhibition of cell growth measured after 24 hrs by MTT assay", "type": "functional, cell-based", "settings": "T-24, 24 h"}}, "data": [{"molecule": "COc1ccc(CC(=O)OCc2ccc3c(c2)OCO3)cc1", "values": [{"measurement": "IC50", "setting": "[1]", "result": 117, "unit": "µM"}, {"measurement": "IC50", "setting": "[2]", "result": 187, "unit": "µM"}]}, {"molecule": "Oc1cc2c(cc1O)CN(C(=S)NCCc1ccc(Cl)cc1)CCC2", "note": "[CAPSAZEPINE]", "values": [{"measurement": "fold change (FC)", "setting": "[3]", "result": 2}, {"measurement": "Activity", "setting": "[4]", "result": 269, "unit": "mm3"}, {"measurement": "IC50", "setting": "[5]", "result": 54, "unit": "µM"}]}, {"molecule": "Oc1cc2c(cc1O)CN(C(=S)NCCc1ccc(Cl)cc1)CC2", "values": [{"measurement": "fold change (FC)", "setting": "[3]", "result": 2.6}, {"measurement": "IC50", "setting": "[6]", "result": 2.5, "unit": "µM"}, {"measurement": "IC50", "setting": "[7]", "result": 2.5, "unit": "µM"}, {"measurement": "Activity", "setting": "[4]", "result": 211, "unit": "mm3"}, {"measurement": "IC50", "setting": "[8]", "result": 2.5, "unit": "µM"}, {"measurement": "inhibition at 24 h", "setting": "[9]", "result": 20, "unit": "%"}, {"measurement": "IC50", "setting": "[10]", "result": 2.5, "unit": "µM"}]}, {"molecule": "COc1cc(CNC(=O)CCCC/C=C/C(C)C)ccc1O", "note": "[CAPSAICIN]", "values": [{"measurement": "IC50", "setting": "[11]", "result": "~128", "unit": "µM"}, {"measurement": "IC50", "setting": "[1]", "result": 117, "unit": "µM"}, {"measurement": "IC50", "setting": "[2]", "result": "≥ 200", "unit": "µM"}, {"measurement": "IC50", "setting": "[12]", "result": "~53", "unit": "µM"}]}, {"molecule": "CCCCCCCCCCC(=O)OCc1ccc2c(c1)OCO2", "values": [{"measurement": "IC50", "setting": "[1]", "result": 87, "unit": "µM"}, {"measurement": "IC50", "setting": "[13]", "result": 85, "unit": "µM"}]}, {"molecule": "O=S(=O)(NCc1ccc2c(c1)OCO2)c1ccccc1", "values": [{"measurement": "IC50", "setting": "[14]", "result": 15.7, "unit": "µM"}, {"measurement": "IC50", "setting": "[15]", "result": 17.5, "unit": "µM"}, {"measurement": "IC50", "setting": "[16]", "result": 19.1, "unit": "µM"}, {"measurement": "IC50", "setting": "[12]", "result": 32, "unit": "µM"}]}, {"molecule": "Oc1cc2c(cc1O)C(c1ccccc1)N(C(=S)NCc1ccccc1)CC2", "note": "(stereo not given)", "values": [{"measurement": "fold change (FC)", "setting": "[3]", "result": 1.6}, {"measurement": "IC50", "setting": "[6]", "result": 20, "unit": "µM"}, {"measurement": "IC50", "setting": "[7]", "result": 20, "unit": "µM"}, {"measurement": "Activity", "setting": "[4]", "result": 134, "unit": "mm3"}, {"measurement": "IC50", "setting": "[8]", "result": 20, "unit": "µM"}, {"measurement": "inhibition at 24 h", "setting": "[9]", "result": 20, "unit": "%"}, {"measurement": "IC50", "setting": "[10]", "result": 20, "unit": "µM"}]}, {"molecule": "COc1cc(COC(=O)CCCCCC(C)C)ccc1O", "values": [{"measurement": "IC50", "setting": "[11]", "result": "~70", "unit": "µM"}]}, {"molecule": "Oc1cc2c(cc1O)C(c1ccccc1)N(C(=S)NCCc1ccc(Cl)cc1)CC2", "note": "(stereo not given)", "values": [{"measurement": "fold change (FC)", "setting": "[3]", "result": 4}, {"measurement": "IC50", "setting": "[6]", "result": 1, "unit": "µM"}, {"measurement": "Activity", "setting": "[17]", "result": 20, "unit": "%"}, {"measurement": "Activity", "setting": "[18]", "result": 95, "unit": "%"}, {"measurement": "IC50", "setting": "[19]", "result": 7.5, "unit": "µM"}, {"measurement": "IC50", "setting": "[7]", "result": 1, "unit": "µM"}, {"measurement": "Activity", "setting": "[4]", "result": 333, "unit": "mm3"}, {"measurement": "IC50", "setting": "[8]", "result": 1, "unit": "µM"}, {"measurement": "IC50", "setting": "[20]", "result": 2.5, "unit": "µM"}, {"measurement": "inhibition at 24 h", "setting": "[9]", "result": 20, "unit": "%"}, {"measurement": "IC50", "setting": "[10]", "result": 1, "unit": "µM"}, {"measurement": "Activity", "setting": "[21]", "result": "~80", "unit": "%"}, {"measurement": "IC50", "setting": "[22]", "result": 1, "unit": "µM"}, {"measurement": "IC50", "setting": "[23]", "result": "~5", "unit": "µM"}]}, {"molecule": "CCOC(=O)C1=C(c2ccccc2)NC(C)=C(C(=O)SCCOC)C1CC", "note": "(stereo not given)", "values": [{"measurement": "IC50", "setting": "[24]", "result": 10.6, "unit": "µM"}, {"measurement": "IC50", "setting": "[25]", "result": 3, "unit": "µM"}, {"measurement": "IC50", "setting": "[26]", "result": 40.8, "unit": "µM"}]}, {"molecule": "COc1cc2ncnc(Nc3ccc(F)c(Cl)c3)c2cc1OCCCN1CCOCC1", "note": "[GEFITINIB]", "values": [{"measurement": "Activity", "setting": "[27]", "result": 50, "unit": "%"}]}, {"molecule": "C=C(C)[C@]12C[C@@H](C)[C@@]34O[C@](Cc5ccccc5)(O[C@@H]1[C@@H]3C=C(COC(=O)Cc1ccc(O)c(OC)c1)C[C@]1(O)C(=O)C(C)=C[C@@H]41)O2", "note": "[RESINIFERATOXIN]", "values": [{"measurement": "IC50", "setting": "[28]", "result": 19.9, "unit": "µM"}, {"measurement": "IC50", "setting": "[29]", "result": "~21.4", "unit": "µM"}]}]}
